Results from the NIST ThermoML archive (doi:10.1016/j.fluid.2018.10.006).
“And” between values parts separate entries of the source, which are not always exact repeats. Equal entries are not always repeated. Numbers after ± are expanded uncertainties.

Conditions: Fluid (supercritical or subcritical phases), Coaxial cylinder method

CCCCCC [hexane]
thermal conductivity
Conditions | 511.79 K | 513.09 K
2634 kPa | – | 0.0455 ± 0.0023 W/m/K
2645 kPa | – | 0.04562 ± 0.0023 W/m/K
2653 kPa | – | 0.04575 ± 0.0023 W/m/K
2654 kPa | – | 0.04575 ± 0.0023 W/m/K
2655 kPa | – | 0.04575 ± 0.0023 W/m/K
2661 kPa | – | 0.04587 ± 0.0023 W/m/K
2722 kPa | – | 0.04549 ± 0.0023 W/m/K
2740 kPa | – | 0.04678 ± 0.0023 W/m/K
2760 kPa | – | 0.04705 ± 0.0023 W/m/K
2763 kPa | – | 0.04704 ± 0.0023 W/m/K
2839 kPa | – | 0.04831 ± 0.0024 W/m/K
2849 kPa | – | 0.04859 ± 0.0024 W/m/K
2879 kPa | – | 0.04916 ± 0.0024 W/m/K
2894 kPa | – | 0.04931 ± 0.0024 W/m/K
2909 kPa | – | 0.0496 ± 0.0024 W/m/K
2931 kPa | – | 0.05008 ± 0.0025 W/m/K
2953 kPa | – | 0.05053 ± 0.0025 W/m/K
2983 kPa | – | 0.05146 ± 0.0025 W/m/K
3010 kPa | – | 0.05237 ± 0.0026 W/m/K
3034 kPa | – | 0.05319 ± 0.0026 W/m/K
3054 kPa | – | 0.05386 ± 0.0026 W/m/K
3098 kPa | – | 0.05597 ± 0.0027 W/m/K
3114 kPa | – | 0.05684 ± 0.0027 W/m/K
3152 kPa | – | 0.05939 ± 0.0029 W/m/K
3163 kPa | – | 0.06043 ± 0.0029 W/m/K
3169 kPa | – | 0.06085 ± 0.0029 W/m/K
3176 kPa | – | 0.06151 ± 0.0029 W/m/K
3180 kPa | – | 0.06217 ± 0.003 W/m/K
3184 kPa | – | 0.06262 ± 0.003 W/m/K
3186 kPa | – | 0.06285 ± 0.003 W/m/K
3193 kPa | – | 0.06308 ± 0.003 W/m/K
3195 kPa | – | 0.06308 ± 0.003 W/m/K
3200 kPa | – | 0.06331 ± 0.003 W/m/K
3205 kPa | – | 0.06425 ± 0.0031 W/m/K
3207 kPa | – | 0.06497 ± 0.0031 W/m/K
3212 kPa | – | 0.06596 ± 0.0032 W/m/K
3216 kPa | – | 0.06647 ± 0.0032 W/m/K
3231 kPa | – | 0.06898 ± 0.0033 W/m/K
3232 kPa | – | 0.06917 ± 0.0033 W/m/K
3234 kPa | – | 0.06942 ± 0.0033 W/m/K
3235 kPa | – | 0.06951 ± 0.0033 W/m/K
3236 kPa | – | 0.06967 ± 0.0033 W/m/K
3237 kPa | – | 0.06987 ± 0.0033 W/m/K
3238 kPa | – | 0.07001 ± 0.0033 W/m/K
3240 kPa | – | 0.07024 ± 0.0033 W/m/K
3242 kPa | – | 0.07052 ± 0.0033 W/m/K
3243 kPa | – | 0.07067 ± 0.0033 W/m/K
3244 kPa | – | 0.07081 ± 0.0034 W/m/K
3246 kPa | – | 0.0711 ± 0.0034 W/m/K
3247 kPa | – | 0.07125 ± 0.0034 W/m/K
3248 kPa | – | 0.07133 ± 0.0034 W/m/K
3249 kPa | – | 0.07154 ± 0.0034 W/m/K
3251 kPa | – | 0.07169 ± 0.0034 W/m/K
3252 kPa | – | 0.07184 ± 0.0034 W/m/K
3253 kPa | – | 0.07198 ± 0.0034 W/m/K
3254 kPa | – | 0.07213 ± 0.0034 W/m/K
3255 kPa | – | 0.07228 ± 0.0034 W/m/K
3256 kPa | – | 0.07243 ± 0.0034 W/m/K
3257 kPa | – | 0.07258 ± 0.0034 W/m/K
3258 kPa | – | 0.07265 ± 0.0034 W/m/K
3260 kPa | – | 0.07284 ± 0.0034 W/m/K
3261 kPa | – | 0.07295 ± 0.0034 W/m/K and 0.073 ± 0.0034 W/m/K
3262 kPa | – | 0.07311 ± 0.0034 W/m/K
3263 kPa | – | 0.07319 ± 0.0034 W/m/K
3265 kPa | – | 0.07338 ± 0.0034 W/m/K
3266 kPa | – | 0.07346 ± 0.0034 W/m/K
3267 kPa | – | 0.07354 ± 0.0034 W/m/K
3274 kPa | – | 0.07412 ± 0.0035 W/m/K
3277 kPa | – | 0.07428 ± 0.0035 W/m/K
3279 kPa | – | 0.07428 ± 0.0035 W/m/K
3280 kPa | – | 0.07438 ± 0.0035 W/m/K
3282 kPa | – | 0.07445 ± 0.0035 W/m/K
3284 kPa | – | 0.07451 ± 0.0035 W/m/K
3287 kPa | – | 0.07452 ± 0.0035 W/m/K
3288 kPa | – | 0.07459 ± 0.0035 W/m/K
3290 kPa | – | 0.07463 ± 0.0035 W/m/K
3292 kPa | – | 0.07463 ± 0.0035 W/m/K
3295 kPa | – | 0.07469 ± 0.0035 W/m/K
3298 kPa | – | 0.07463 ± 0.0035 W/m/K
3303 kPa | – | 0.07463 ± 0.0035 W/m/K
3306 kPa | – | 0.07437 ± 0.0035 W/m/K
3310 kPa | – | 0.07332 ± 0.0034 W/m/K
3312 kPa | – | 0.07332 ± 0.0034 W/m/K
3313 kPa | – | 0.07228 ± 0.0034 W/m/K
3318 kPa | – | 0.07228 ± 0.0034 W/m/K
3319 kPa | – | 0.07228 ± 0.0034 W/m/K
3322 kPa | – | 0.07228 ± 0.0034 W/m/K
3326 kPa | – | 0.07228 ± 0.0034 W/m/K
3330 kPa | – | 0.07228 ± 0.0034 W/m/K
3331 kPa | – | 0.07228 ± 0.0034 W/m/K
3332 kPa | – | 0.07228 ± 0.0034 W/m/K
3334 kPa | – | 0.07228 ± 0.0034 W/m/K
3336 kPa | – | 0.07228 ± 0.0034 W/m/K
3340 kPa | – | 0.07228 ± 0.0034 W/m/K
3343 kPa | – | 0.07197 ± 0.0034 W/m/K
3345 kPa | – | 0.07087 ± 0.0033 W/m/K
3346 kPa | – | 0.07087 ± 0.0033 W/m/K
3347 kPa | – | 0.07087 ± 0.0033 W/m/K
3350 kPa | – | 0.07087 ± 0.0033 W/m/K
3360 kPa | – | 0.07087 ± 0.0033 W/m/K
3370 kPa | – | 0.07087 ± 0.0033 W/m/K
3380 kPa | – | 0.07087 ± 0.0033 W/m/K
3390 kPa | – | 0.07087 ± 0.0033 W/m/K
3400 kPa | – | 0.06942 ± 0.0032 W/m/K
3420 kPa | – | 0.06942 ± 0.0032 W/m/K
3430 kPa | – | 0.06942 ± 0.0032 W/m/K
3450 kPa | – | 0.06824 ± 0.0032 W/m/K and 0.06843 ± 0.0032 W/m/K
3500 kPa | – | 0.06824 ± 0.0032 W/m/K
3600 kPa | – | 0.06824 ± 0.0032 W/m/K
3700 kPa | – | 0.06824 ± 0.0032 W/m/K
3800 kPa | – | 0.06824 ± 0.0032 W/m/K
3900 kPa | – | 0.06824 ± 0.0032 W/m/K
4000 kPa | – | 0.07056 ± 0.0033 W/m/K
4100 kPa | – | 0.0708 ± 0.0033 W/m/K and 0.07056 ± 0.0033 W/m/K
4180 kPa | 0.07039 ± 0.0033 W/m/K | –
4190 kPa | 0.07026 ± 0.0033 W/m/K | –
4200 kPa | 0.07026 ± 0.0033 W/m/K | 0.07086 ± 0.0033 W/m/K
4300 kPa | – | 0.07086 ± 0.0033 W/m/K
4400 kPa | 0.07099 ± 0.0033 W/m/K | –
4600 kPa | 0.07159 ± 0.0034 W/m/K | 0.07116 ± 0.0033 W/m/K
4700 kPa | – | 0.07125 ± 0.0033 W/m/K
4800 kPa | 0.07179 ± 0.0034 W/m/K | 0.07144 ± 0.0033 W/m/K
4900 kPa | – | 0.07165 ± 0.0034 W/m/K
5000 kPa | – | 0.07187 ± 0.0034 W/m/K
5100 kPa | – | 0.07209 ± 0.0034 W/m/K
5200 kPa | – | 0.07225 ± 0.0034 W/m/K
5300 kPa | – | 0.0725 ± 0.0034 W/m/K
5400 kPa | 0.07303 ± 0.0034 W/m/K | 0.07269 ± 0.0034 W/m/K
5500 kPa | – | 0.07288 ± 0.0034 W/m/K
5600 kPa | – | 0.07304 ± 0.0034 W/m/K
5700 kPa | – | 0.07323 ± 0.0034 W/m/K
5800 kPa | – | 0.07339 ± 0.0034 W/m/K
5900 kPa | – | 0.07359 ± 0.0034 W/m/K
6000 kPa | 0.074 ± 0.0034 W/m/K | 0.07375 ± 0.0034 W/m/K
6100 kPa | – | 0.07391 ± 0.0034 W/m/K
6200 kPa | – | 0.07408 ± 0.0034 W/m/K
6300 kPa | – | 0.07424 ± 0.0035 W/m/K
6400 kPa | – | 0.07438 ± 0.0035 W/m/K
6500 kPa | – | 0.07454 ± 0.0035 W/m/K
6600 kPa | – | 0.07471 ± 0.0035 W/m/K
6700 kPa | – | 0.07488 ± 0.0035 W/m/K
6800 kPa | – | 0.07501 ± 0.0035 W/m/K
6900 kPa | – | 0.07515 ± 0.0035 W/m/K
7000 kPa | 0.07567 ± 0.0035 W/m/K | 0.07528 ± 0.0035 W/m/K
7100 kPa | – | 0.07542 ± 0.0035 W/m/K
7150 kPa | – | 0.07549 ± 0.0035 W/m/K
7200 kPa | – | 0.07556 ± 0.0035 W/m/K
7211 kPa | – | 0.07556 ± 0.0035 W/m/K
7292 kPa | – | 0.07569 ± 0.0035 W/m/K
7496 kPa | – | 0.07597 ± 0.0035 W/m/K
7501 kPa | – | 0.07597 ± 0.0035 W/m/K
7517 kPa | – | 0.07597 ± 0.0035 W/m/K
7533 kPa | – | 0.07599 ± 0.0035 W/m/K
7800 kPa | – | 0.07638 ± 0.0035 W/m/K
8000 kPa | 0.07705 ± 0.0036 W/m/K | –
8100 kPa | – | 0.07676 ± 0.0036 W/m/K
8200 kPa | – | 0.07687 ± 0.0036 W/m/K
9000 kPa | 0.07812 ± 0.0036 W/m/K | –
10000 kPa | 0.07922 ± 0.0037 W/m/K | –
